In PubChem BioAssay (NCI) one finds TGI and GI50 data, which are given here for ten compounds.

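The compound was tested at five concentrations on cells cultured in 96-well plates, with a 48-hour exposure period. Here, GI50 denotes the concentration required for 50% inhibition of growth. TGI: concentration producing complete growth inhibition.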

Some test systems named below: 786-0 renal; A498 renal; HOP-62 NSCLC; HT29 colon; M14 melanoma; MOLT-4 leukemia; NCI-H460 lung; SF-268 CNS; SK-MEL-28 melanoma; EKVX NSCLC.
Assay in all cases: NCI tumour cell line growth inhibition, 48 h

As to `COc1cc2c(c(OC)c1OC)-c1ccc(SC)c(=O)cc1[C@@H](NC(=O)c1ccc(Cl)cc1)CC2`, the TGI in the test with 786-0 renal is 15.8 µM; in the test on A498 renal, below 0.01 µM; with HOP-62 NSCLC it was 2.03 µM; with HT29 colon, 11.2 µM; with M14 melanoma, 2.3 µM; with MOLT-4 leukemia, above 100 µM. In addition, the TGI with NCI-H460 lung is 10.5 µM; in the test with SF-268 CNS, above 100 µM; with SK-MEL-28 melanoma, above 100 µM.
For the compound `CO[C@@]12[C@@H]3NC3CN1C1=C(C(=O)C(N)=C(C)C1=O)[C@@H]2COC(N)=O` (stereo partly specified), the TGI in the test with 786-0 renal was 2.77 µM; in the test on A498 renal it was 1.21 µM; with EKVX NSCLC, 20.2 µM; in the test with HOP-62 NSCLC, 8.21 µM; with HT29 colon, 5.24 µM; in the test with M14 melanoma, 1.82 µM. Also, the TGI in the test on NCI-H460 lung was found to be 1.44 µM; in the test with SK-MEL-28 melanoma it was 5.47 µM. Further, the GI50 is 3.09 µM with EKVX NSCLC, 0.278 µM in the test with MOLT-4 leukemia and 1.39 µM with SK-MEL-28 melanoma.
For `N[C@@H]1CCCC[C@@H]1N.O=P([O-])([O-])CN(CP(=O)([O-])[O-])CP(=O)([O-])[O-].[Pt+2]`, the GI50 in the test with 786-0 renal, in the test on A498 renal, with HOP-62 NSCLC, with HT29 colon, with M14 melanoma and in the test on MOLT-4 leukemia was above 100 µM each time. In addition, the GI50 in the test on NCI-H460 lung, in the test on SF-268 CNS and in the test on SK-MEL-28 melanoma was above 100 µM each time. Further, the TGI in the test with 786-0 renal, in the test on A498 renal, in the test on HOP-62 NSCLC, in the test with HT29 colon, in the test with M14 melanoma and in the test on MOLT-4 leukemia was above 100 µM each time. Moreover, the TGI in the test on NCI-H460 lung, in the test with SF-268 CNS and with SK-MEL-28 melanoma was above 100 µM throughout.
As for `COc1nc(NC2OC(COC(C)=O)C(OC(C)=O)C(OC(C)=O)C2OC(C)=O)c(-c2csc(N)n2)c(=O)n1C` (stereo unspecified), the TGI with 786-0 renal was 54.6 µM; in the test on A498 renal, above 100 µM; in the test with HOP-62 NSCLC it was above 100 µM; with HT29 colon, above 100 µM; in the test with M14 melanoma it was above 100 µM; with MOLT-4 leukemia, above 100 µM. In addition, the TGI in the test with NCI-H460 lung, in the test with SF-268 CNS and in the test on SK-MEL-28 melanoma was above 100 µM throughout.
With `OCNCCNc1nc2ccccc2c2[nH]c3ccccc3c12`, the GI50 in the test with 786-0 renal was 0.34 µM; in the test on A498 renal, 1.55 µM; with EKVX NSCLC it was 1.18 µM; in the test with HOP-62 NSCLC it was 0.371 µM; in the test on HT29 colon it was 0.556 µM; with MOLT-4 leukemia, 0.809 µM. In addition, the GI50 with NCI-H460 lung was 1.46 µM; in the test with SF-268 CNS, 1.36 µM; in the test on SK-MEL-28 melanoma, 1.01 µM. In addition, the TGI is 2.35 µM in the test with 786-0 renal; 4.46 µM in the test with A498 renal; 3.25 µM in the test on EKVX NSCLC; 1.92 µM in the test with HOP-62 NSCLC; above 50 µM in the test on HT29 colon; above 50 µM with MOLT-4 leukemia. Further, the TGI in the test on NCI-H460 lung came to 5.8 µM; in the test on SF-268 CNS, 6.44 µM; in the test with SK-MEL-28 melanoma, 6.84 µM.
As for `O=C(c1ccc(Cl)cc1)C1OC12C(=O)Nc1ccccc12` (stereo unspecified), the TGI with 786-0 renal is 26.9 µM; in the test with A498 renal, 36 µM; with EKVX NSCLC, 33.4 µM; with HOP-62 NSCLC it was above 73.3 µM; in the test on HT29 colon, 27.5 µM; with M14 melanoma it was 19 µM. Moreover, the TGI was determined as 47.1 µM in the test on NCI-H460 lung, 40.2 µM in the test with SF-268 CNS and 29.5 µM with SK-MEL-28 melanoma.
Regarding `CC1CC2(C)CC(=O)C1C1C(=O)N(CCN3CCCCC3)C(=O)C12` (stereo unspecified), the GI50 in the test on 786-0 renal, in the test on A498 renal, with EKVX NSCLC, with HOP-62 NSCLC, with HT29 colon and with M14 melanoma was above 100 µM each time. Further, the GI50 in the test on MOLT-4 leukemia and in the test on SF-268 CNS was above 100 µM each time. Moreover, the TGI with 786-0 renal, in the test with A498 renal, with EKVX NSCLC, in the test on HOP-62 NSCLC, in the test on HT29 colon and in the test with M14 melanoma was above 100 µM in each case. Further, the TGI in the test on MOLT-4 leukemia and in the test on SF-268 CNS was above 100 µM each time.
For the compound `CN1CCN(c2nc(-c3ccncc3)nc3sc4c(c23)CCCCCC4)CC1`, the GI50 is 4.77 µM in the test with 786-0 renal; 1.06 µM in the test on A498 renal; 6.5 µM in the test with HOP-62 NSCLC; 4.75 µM with HT29 colon; 5.32 µM in the test with M14 melanoma; 3.8 µM with MOLT-4 leukemia. The GI50 in the test with NCI-H460 lung was 13.5 µM; in the test on SF-268 CNS it was 5.34 µM; in the test on SK-MEL-28 melanoma, 12.5 µM. Moreover, the TGI was 20.2 µM in the test with 786-0 renal; 7.56 µM in the test on A498 renal; 19.4 µM in the test on HOP-62 NSCLC; 17.3 µM in the test on HT29 colon; 18 µM with M14 melanoma; 16.2 µM with MOLT-4 leukemia. The TGI in the test on NCI-H460 lung was 29 µM; in the test with SF-268 CNS it was 20.7 µM; with SK-MEL-28 melanoma, 25.1 µM.
As for `CN1CCc2c1nc(-c1ccc([N+](=O)[O-])cc1)c1c2N(C)CC1`, the TGI in the test with 786-0 renal, with A498 renal, in the test with EKVX NSCLC, in the test with HOP-62 NSCLC, in the test on HT29 colon and with M14 melanoma was above 100 µM each time. In addition, the TGI in the test with MOLT-4 leukemia, in the test with NCI-H460 lung and in the test with SF-268 CNS was above 100 µM each time.
Regarding `C[C@]12CC[C@H](OC3CCCCO3)CC1=CC[C@@H]1C2CC[C@]2(C)/C(=N/O)CCC12` (stereo partly specified), the TGI in the test with 786-0 renal was 55.8 µM; in the test on A498 renal it was above 100 µM; in the test on EKVX NSCLC it was 82.9 µM; in the test on HOP-62 NSCLC, above 100 µM; in the test on HT29 colon it was 26.8 µM; in the test on M14 melanoma, 63.9 µM. Further, the TGI with MOLT-4 leukemia was 48.9 µM; in the test on NCI-H460 lung, 62.1 µM; in the test on SK-MEL-28 melanoma, 54.3 µM.
